Measurements as given in the supplement of paper PMC10307832.

Experiments:
Venetoclax + Dasatinib = compound: CC1(C)CCC(CN2CCN(c3ccc(C(=O)NS(=O)(=O)c4ccc(NCC5CCOCC5)c([N+](=O)[O-])c4)c(Oc4cnc5[nH]ccc5c4)c3)CC2)=C(c2ccc(Cl)cc2)C1 [Venetoclax] + Cc1nc(Nc2ncc(C(=O)Nc3c(C)cccc3Cl)s2)cc(N2CCN(CCO)CC2)n1 [Dasatinib] (partner 0.075 µM); assay: relative viability (nuclei count vs DMSO), 5 days (fraction); higher = more cells survive
In short: (§1)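 Cells from lung cancer lines were seeded into 1536-well plates and, one day later, dosed by pin tool. Treatments were either a single drug or a fixed dose of an anchor drug with five library-drug doses (not always all listed) in √10 steps. After 5 days, nuclei were stained in a one-step fixation (final 0.05% Triton X-100, 1% formaldehyde, 1 ug/ml Hoechst) and counted on 4× images, and relative viability is the treated-to-vehicle nuclei ratio, as the median of duplicate plates.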

Venetoclax + Luminespib = compound: CC1(C)CCC(CN2CCN(c3ccc(C(=O)NS(=O)(=O)c4ccc(NCC5CCOCC5)c([N+](=O)[O-])c4)c(Oc4cnc5[nH]ccc5c4)c3)CC2)=C(c2ccc(Cl)cc2)C1 [Venetoclax] + CCNC(=O)c1noc(-c2cc(C(C)C)c(O)cc2O)c1-c1ccc(CN2CCOCC2)cc1 [Luminespib] (partner 0.01 µM); assay: as above
In short: as §1

Row | Cell Line | relative viability (Venetoclax + Dasatinib; first compound 0.01 µM) | relative viability (Venetoclax + Dasatinib; first compound 0.03162 µM) | relative viability (Venetoclax + Dasatinib; first compound 0.1 µM) | relative viability (Venetoclax + Dasatinib; first compound 0.3162 µM) | relative viability (Venetoclax + Dasatinib; first compound 1 µM) | relative viability (Venetoclax + Luminespib; first compound 0.01 µM) | relative viability (Venetoclax + Luminespib; first compound 0.03162 µM) | relative viability (Venetoclax + Luminespib; first compound 0.1 µM) | relative viability (Venetoclax + Luminespib; first compound 0.3162 µM) | relative viability (Venetoclax + Luminespib; first compound 1 µM)
1 | NCI-H1755 | 0.398 | 0.404 | 0.43 | 0.402 | 0.378 | 0.534 | 0.452 | 0.556 | 0.348 | 0.55
2 | NCI-H520 | 0.218 | 0.193 | 0.158 | 0.178 | 0.195 | 0.258 | 0.209 | 0.221 | 0.209 | 0.187
3 | LOU-NH91 | 0.511 | 0.642 | 0.532 | 0.58 | 0.495 | 0.271 | 0.374 | 0.345 | 0.336 | 0.326
4 | LU99A | 0.625 | 0.632 | 0.659 | 0.516 | 0.583 | 0.232 | 0.256 | 0.262 | 0.227 | 0.37
5 | PC-14 | 0.337 | 0.272 | 0.284 | 0.259 | 0.253 | 0.175 | 0.122 | 0.15 | 0.153 | 0.154
6 | NCI-H1563 | 0.531 | 0.516 | 0.445 | 0.442 | 0.461 | 0.548 | 0.546 | 0.499 | 0.447 | 0.577
7 | NCI-H2126 | 0.568 | 0.572 | 0.612 | 0.607 | 0.546 | 0.866 | 0.95 | 0.991 | 0.961 | 0.87
